Test results published in patent US11560391B2, “Sulfonylurea compounds as inhibitors of interleukin-1 activity” (Genentech, Inc., priority 2018, dated 2023).
Like-named read-outs stand apart in the source and are kept apart here.

How the values were obtained:
[1] = biological target: T1, NLRP3 inflammasome (Homo sapiens, UniProt Q96P20); experiment: NLRP3 inflammasome activation assay in LPS-primed, nigericin-stimulated PBMCs, IL-1β release; type: cell-based; settings: 10 μM nigericin
T1 construct: freshly isolated from human peripheral blood from healthy donors; StemCells Technologies; host or cells: primary human PBMCs
T1 sequence (Q96P20 whole entry): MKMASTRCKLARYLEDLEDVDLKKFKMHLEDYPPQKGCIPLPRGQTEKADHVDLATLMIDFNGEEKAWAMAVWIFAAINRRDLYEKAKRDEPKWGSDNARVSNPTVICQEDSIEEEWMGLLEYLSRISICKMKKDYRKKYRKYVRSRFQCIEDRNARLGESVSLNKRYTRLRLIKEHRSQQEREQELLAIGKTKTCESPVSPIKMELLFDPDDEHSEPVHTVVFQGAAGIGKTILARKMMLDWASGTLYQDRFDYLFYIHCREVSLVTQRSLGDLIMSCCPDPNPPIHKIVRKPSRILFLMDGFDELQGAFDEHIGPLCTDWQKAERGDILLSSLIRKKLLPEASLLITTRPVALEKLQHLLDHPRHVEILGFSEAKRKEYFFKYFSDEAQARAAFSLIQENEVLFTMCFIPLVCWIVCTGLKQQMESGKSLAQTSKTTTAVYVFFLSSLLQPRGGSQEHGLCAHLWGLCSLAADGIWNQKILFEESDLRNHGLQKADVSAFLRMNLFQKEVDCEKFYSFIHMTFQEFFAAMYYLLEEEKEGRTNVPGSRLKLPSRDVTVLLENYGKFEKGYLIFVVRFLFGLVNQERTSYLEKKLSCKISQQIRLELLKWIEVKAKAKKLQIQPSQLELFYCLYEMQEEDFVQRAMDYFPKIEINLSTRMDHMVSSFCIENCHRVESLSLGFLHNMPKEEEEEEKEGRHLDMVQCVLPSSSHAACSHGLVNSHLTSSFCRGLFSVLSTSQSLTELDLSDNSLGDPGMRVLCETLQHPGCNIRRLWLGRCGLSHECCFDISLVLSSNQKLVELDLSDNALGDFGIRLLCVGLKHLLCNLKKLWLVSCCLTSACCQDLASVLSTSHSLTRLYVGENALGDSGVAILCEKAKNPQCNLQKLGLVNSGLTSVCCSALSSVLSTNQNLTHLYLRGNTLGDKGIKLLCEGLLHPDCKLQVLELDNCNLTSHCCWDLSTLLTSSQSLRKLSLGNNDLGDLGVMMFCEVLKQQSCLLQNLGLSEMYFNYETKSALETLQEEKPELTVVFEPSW
Procedure: Some of the following assays were used to determine the inhibitory activity of the compounds on the NLRP3 inflammasome using a common inflammasome activation stimuli-nigericin.
(§1) Human peripheral blood mononuclear cells (PBMCs), consisting of lymphocytes (T, B and NK cells), monocytes and dendritic cells, are freshly isolated from human peripheral blood from healthy donors. Cells are obtained through an IRB approved donor program by iXCells Biotechnologies where all the donors are tested for bacterial and viral infections. Cells are purified from peripheral blood using ficoll gradient centrifugation.
(§2) Fresh or cryopreserved PMBCs are seeded in V-bottom 96-well plate at 0.5-1×10^5 cells per well and incubated overnight at 37° C. with 5% CO2 in RPMI 1640 medium with GlutaMAX supplement, 4.5 g/L D-glucose, 10% Fetal Bovine Serum (FBS), […] Sodium Pyruvate, 1% Penicillin/Streptomycin, 10 mM HEPES and 0.05 mM of […]. Freshly isolated or cryopreserved KCs cells are seeded in flat-bottom 96-well plates at 0.6-1.5×10^5 cells/well and incubated overnight at 37° C., 5% CO2 in RPMI 1640 Medium with GlutaMAX supplement, FBS, 1% Penicillin/Streptomycin and 10 mM HEPES. The following day, the cells are primed with 100 ng/mL of lipopolysaccharides (LPS; Sigma Aldrich) in FBS-free RPMI 1640 for 3 h. After the priming step, the media is removed and PBMCs are pre-incubated with serial concentrations of test compounds (0.00017-10 uM) or vehicle (DMSO) for 30 min in FBS-free media prior to addition of the NLRP3 activator. Cells are then stimulated with 10 μM Nigericin (Sigma Aldrich; InvivoGen) for 1.5 h. Plates were centrifuged at 1,500 rpm for 3 minutes to pellet cells and supernatant was transferred into new plates for subsequent experiments.
For ELISA assays cells are seeded into 96-well plates. Post study, supernatants are removed and the levels of mature IL-1β, IL18 and TNFα (Quantikine ELISA, R&D systems) are measured in cell conditioned media by ELISA according to manufacturer's instructions.
Human frozen PBMCs were purchased from StemCells Technologies. Cells were rapidly thawed in 37° C. water bath and resuspended in fresh assay media consisting of RPMI 1640 Medium containing 1% sodium pyruvate, 10 mM HEPES, 2.5 g/L glucose and 55 μM 2-Mercaptoethanol. Cell density was adjusted to 8.1×10^5 cells/mL. Cells were primed by adding lipopolysaccharide (Invivogen Ultrapure lipopolysaccharide from E. coli, tlrl-3pelps) at a final concentration of 100 ng/mL in cell suspension. 37 μL of cell suspension with LPS was seeded per well of a 384 well plate and incubated for 3 hours at 37° C. and 5% CO2. After priming, PBMCs were preincubated with serially diluted test compounds with starting concentration of 40 μM followed by 2-fold dilution for a 20-point curve or vehicle (DMSO) for 30 min in assay media at 37° C. and 5% CO2. Cells were then stimulated with 10 μM nigericin (Invivogen, tlrl-nig-5) for 90 min at 37° C. and 5% CO2 to activate NLRP3 dependent inflammasome pathway and IL-1β release in cell culture supernatant. Cells were centrifuged at 1200 RPM for 1 min and 40 μL of supernatant was transferred into fresh plates and stored at −80° C. until IL-1β analysis.
16 μL of supernatant was added to white 384 well HTRF plates, followed by addition of 4 μL of HTRF cocktail in each well. Plates were quickly centrifuged, sealed and incubated overnight at room temperature. Next day, HTRF signal was read on a Pherastar and ratio of 665/620 was calculated based on manufacturer's protocol to obtain concentration of IL-1β in cell culture supernatant.

[2] = system: PBMCs; experiment: CTG (CellTiter-Glo) viability assay of compound-treated LPS and nigericin stimulated PBMCs; type: cell-based, human
Procedure: as §1, §2
Viability of compound treated cells is measured using CellTiter-Glo® assay (Promega, Madison, Wis.) that measures the ATP content of cells which is proportional to the number of live cells within a well. This is a counter-screen to establish that the reduction of IL-1β levels in LPS and nigericin stimulated and compound treated cells is not due to cytotoxicity, but rather through the inhibition of the inflammasome pathway. Compounds inhibiting NRLP3 inflammasome activation ultimately increase the viability of LPS and nigericin stimulated cells by blocking NLRP3 mediated pyroptosis that would otherwise lead to cell lysis.

[3] = LPS 100 ng/mL priming, read-out: IL-1B pIC50 (converted)
[4] = Homo sapiens, PBMC, LPS and nigericin stimulated cells, read-out: CTG pIC50 (converted)
[5] = PBMC, LPS priming, read-out: PMBC IL-1β IC50
[6] = Homo sapiens, PBMC, read-out: PMBC CTG IC50
[7] = LPS and nigericin stimulated cells, read-out: CTG pIC50 (converted)

Row | SMILES | IC50 [1, 3] [nM] | IC50 [2, 4] [nM] | IC50 [1, 5] [nM] | IC50 [2, 6] [nM] | IC50 [2, 7] [nM]
1 | COc1cc(C(C)C)c(NC(=O)NS(=O)(=O)c2cnn3c2OC[C@@H](OC)C3)c(C(C)C)n1 [drawing 404] | 100 to 1000 | 100 to 1000 |  |  | 
2 | COc1cc(C(C)C)c(NC(=O)NS(=O)(=O)c2cnn3c2OC[C@@H](N2CC(OC)C2)C3)c(C(C)C)n1 [drawing 409] | < 100 | 100 to 1000 |  |  | 
3 | CC(C)c1cc(N(C)C)nc(C(C)C)c1NC(=O)NS(=O)(=O)c1cnn2c1OCCC2 [Example 51, Sodium N-((6-(dimethylamino)-2,4-diisopropylpyridin-3-yl)carbamoyl)-6,7-dihydro-5H-pyrazolo[5,1-b][1,3]oxazine-3-sulfonamide] |  |  | 2070 | 1120 | 
4 | COc1cc(C(C)C)c(NC(=O)NS(=O)(=O)c2cnn3c2OC[C@@H](OC)C3)c(C(C)C)n1 [Example 37a, Sodium (S)—N-((2,4-diisopropyl-6-methoxypyridin-3-yl)carbamoyl)-6-methoxy-6,7-dihydro-5H-pyrazolo[5,1-b][1,3]oxazine-3-sulfonamide] |  |  | 550 | 600 | 
5 | CC(C)c1ccnc(C(C)C)c1NC(=O)NS(=O)(=O)c1cnn2c1OCCC2 [Example 31, N-((2,4-diisopropylpyridin-3-yl)carbamoyl)-6,7-dihydro-5H-pyrazolo[5,1-b][1,3]oxazine-3-sulfonamide] |  |  | 4380 | 890 | 
6 | CC(C)n1nc2c(c1NC(=O)NS(=O)(=O)c1cnn3c1OCCC3)CCC2 [Example 44, N-((2-isopropyl-2,4,5,6-tetrahydrocyclopenta[c]pyrazol-3-yl)carbamoyl)-6,7-dihydro-5H-pyrazolo[5,1-b][1,3]oxazine-3-sulfonamide] |  |  | 1220 | > 10000 | 
7 | O=C(NC1C2CC3CC(C2)C1C3)NS(=O)(=O)c1cnn2c1OCCC2 (stereo not drawn) | 1000 to 10000 | > 10000 |  |  | 
8 | CC(C)c1cncc(C(C)C)c1NC(=O)NS(=O)(=O)c1cnn2c1OCCC2 [Example 28, N-((3,5-diisopropylpyridin-4-yl)carbamoyl)-6,7-dihydro-5H-pyrazolo[5,1-b][1,3]oxazine-3-sulfonamide] |  |  | 1790 | 69 | 
9 | O=C(NC1(c2ccccc2)CC1)NS(=O)(=O)c1cnn2c1OCCC2 [Example 11, N-((1-phenylcyclopropyl)carbamoyl)-6,7-dihydro-5H-pyrazolo[5,1-b][1,3]oxazine-3-sulfonamide] |  |  | > 10000 | > 10000 | 
10 | CC(C)c1cc(C2CC2)nc(C(C)C)c1NC(=O)NS(=O)(=O)c1cnn2c1OCCC2 [Example 45, N-((6-cyclopropyl-2,4-diisopropylpyridin-3-yl)carbamoyl)-6,7-dihydro-5H-pyrazolo[5,1-b][1,3]oxazine-3-sulfonamide] |  |  | 910 | 370 | 
11 | CC(C)n1nc2c(c1NC(=O)NS(=O)(=O)c1cnn3c1OCCC3)CCC2 [drawing 411] | 1000 to 10000 | > 10000 |  |  | 
12 | CCOc1cc(C(C)C)c(NC(=O)NS(=O)(=O)c2cnn3c2OCCC3)c(C(C)C)n1 [drawing 417] | 1000 to 10000 | 1000 to 10000 |  |  | 
13 | COc1cc(C(C)C)c(NC(=O)NS(=O)(=O)c2cnn3c2OCC(CNC(C)=O)C3)c(C(C)C)n1 (stereo not drawn) | 1000 to 10000 | 1000 to 10000 |  |  | 
14 | CCn1nc(C(C)C)c(NC(=O)NS(=O)(=O)c2cnn3c2OCCC3)c1C(C)C [drawing 401] | 1000 to 10000 | 100 to 1000 |  |  | 
15 | CC(C)c1cc(C2CC2)nc(C(C)C)c1NC(=O)NS(=O)(=O)c1cnn2c1OCCC2 [drawing 412] | 100 to 1000 | 100 to 1000 |  |  | 
16 | CC(C)c1nn(C(C)C)c(C(C)C)c1NC(=O)NS(=O)(=O)c1cnn2c1OCCC2 [drawing 400] | 1000 to 10000 | 1000 to 10000 |  |  | 
17 | CN[C@@H]1COc2c(S(=O)(=O)NC(=O)Nc3c(C(C)C)cc(OC)nc3C(C)C)cnn2C1 [drawing 408] | 100 to 1000 | < 100 |  |  | 
18 | CC(C)c1cc(N(C)C)nc(C(C)C)c1NC(=O)NS(=O)(=O)c1cnn2c1OCCC2 [drawing 418] | 1000 to 10000 | 100 to 1000 |  |  | 

Row | SMILES | IC50 [1, 3] [nM] | IC50 [2, 4] [nM] | IC50 [1, 5] [nM] | IC50 [2, 6] [nM] | IC50 [2, 7] [nM]
19 | CC(C)c1ccnc(C(C)C)c1NC(=O)NS(=O)(=O)c1cnn2c1OCCC2 [drawing 397] | 1000 to 10000 |  |  |  | 1000 to 10000
20 | O=C(NC1(c2ccccc2)CC1)NS(=O)(=O)c1cnn2c1OCCC2 [drawing 376] | > 10000 | > 10000 |  |  | 
21 | CC(C)c1nn(CC2CC2)c(C(C)C)c1NC(=O)NS(=O)(=O)c1cnn2c1OCCC2 [drawing 402] | 100 to 1000 | 100 to 1000 |  |  | 
22 | Cc1onc(-c2ccccc2)c1NC(=O)NS(=O)(=O)c1cnn2c1OCCC2 [drawing 373] | > 10000 | > 10000 |  |  | 
23 | CC(C)c1cc(Cl)nc(C(C)C)c1NC(=O)NS(=O)(=O)c1cnn2c1OCCC2 [Example 32, N-((6-chloro-2,4-diisopropylpyridin-3-yl)carbamoyl)-6,7-dihydro-5H-pyrazolo[5,1-b][1,3]oxazine-3-sulfonamide] |  |  | 590 | 920 | 
24 | CC(C)c1cc(C#N)nc(C(C)C)c1NC(=O)NS(=O)(=O)c1cnn2c1OCCC2 [drawing 416] | 1000 to 10000 | 100 to 1000 |  |  | 
25 | CC(C)c1cc(Cl)nc(C(C)C)c1NC(=O)NS(=O)(=O)c1cnn2c1OCCC2 [drawing 399] | 100 to 1000 | 100 to 1000 |  |  | 
26 | CO[C@@H]1COc2c(S(=O)(=O)NC(=O)Nc3c(C(C)C)nn(C)c3C(C)C)cnn2C1 [drawing 405] | 1000 to 10000 | 100 to 1000 |  |  | 
27 | CC(C)c1cncc(C(C)C)c1NC(=O)NS(=O)(=O)c1cnn2c1OCCC2 [drawing 394] | 1000 to 10000 |  |  |  | < 100
28 | CC(C)c1cncc(C(C)C)c1NC(=O)NS(=O)(=O)c1cnn2c1OCCC2 [drawing 393] | 100 to 1000 | 100 to 1000 |  |  | 
29 | CC(C)c1ccnc(C(C)C)c1NC(=O)NS(=O)(=O)c1cnn2c1OCCC2 [drawing 398] | 1000 to 10000 |  |  |  | 100 to 1000
30 | COc1cc(C(C)C)c(NC(=O)NS(=O)(=O)c2cnn3c2OCCC3)c(C(C)C)n1 [drawing 396] | 100 to 1000 | 100 to 1000 |  |  | 
31 | CCn1nc(C(C)C)c(NC(=O)NS(=O)(=O)c2cnn3c2OC[C@@H](OC)C3)c1C(C)C [drawing 406] | 1000 to 10000 | 100 to 1000 |  |  | 
32 | CC(C)c1nn(C)c(C(C)C)c1NC(=O)NS(=O)(=O)c1cnn2c1OCCC2 [Example 26, N-((3,5-diisopropyl-1-methyl-1H-pyrazol-4-yl)carbamoyl)-6,7-dihydro-5H-pyrazolo[5,1-b][1,3]oxazine-3-sulfonamide] |  |  | > 10000 |  | 
33 | O=C(Nc1c2c(n3c1CCC3)CCCC2=O)NS(=O)(=O)c1cnn2c1OCCC2 [drawing 395] | > 10000 |  |  |  | 
34 | Cc1cc(NC(=O)NS(=O)(=O)c2cnn3c2OCCC3)n(C(C)C)n1 [drawing 410] | > 10000 |  |  |  | 
35 | O=C(NC1c2ccccc2CC12CCOCC2)NS(=O)(=O)c1cnn2c1OCCC2 (stereo not drawn) [Example 2, N-((1,2′,3,3′,5′,6′-hexahydrospiro[indene-2,4′-pyran]-1-yl)carbamoyl)-6,7-dihydro-5H-pyrazolo[5,1-b][1,3]oxazine-3-sulfonamide] |  |  | > 10000 |  | 
